The text below walks through data of patent US5877175A, “Pharmaceutical compositions” (KNOLL Aktiengesellschaft, priority 1995, dated 1999).

In general, ED50 refers to the midpoint of the dose-response relation. A high value points to weaker potency.

The subject of assay [1] is myoclonic seizures induced in mice by the administration of bicuculline. Briefly: BICM test: antagonism of myoclonic seizures induced in mice by bicuculline. Type of assay: in vivo. As to conditions: female mice, 1 h before (+)-bicuculline 0.55 mg/kg i.v.; for ED50: Mus musculus, oral, dose inhibiting seizures in 50% of the animals; for % protection from bicuculline-induced seizures: figure in brackets, 100 mg/kg (po). The source says:
The ability of the compounds to antagonise the myoclonic seizures induced in mice by the administration of bicuculline was observed. Hereinafter, this test is referred to as "BICM".
In the BICM experiments groups of female mice in the weight range 25 to 30 grammes had free access to food and water until one hour before administration of the compound to be tested. The compound to be tested was orally administered at one or more doses in 1% aqueous methylcellulose solution. One hour later (+)-bicuculline at a dose of 0.55 mg/kg was administered intravenously into a tail vein. Such a dose of (+)-bicuculline would generally be expected to induce a seizure in the mice.
During the following two minutes the animals were observed and the percentage of animals in which seizures had been inhibited was recorded. Thus, the greater the anticonvulsant activity of the compound, the higher was the percentage recorded in the BICM test.
A value for the dose inhibiting the seizures in 50% of the animals (ED50) was calculated from the regression straight line plot of the percentage of animals in which seizures were inhibited against the dose of compound.

The test system of assay [2] is seizures in mice induced by a maximal electroshock. The assay is described as follows: MESM test: inhibition of seizures in mice induced by a maximal electroshock. It is filed as in vivo. As to conditions: male mice, 1 h before electroshock (99 mA, 50 Hz, 1.0 second); for ED50: Mus musculus, oral, dose inhibiting seizures in 50% of the mice; for % protection from MES-induced seizure: figure in brackets, 100 mg/kg (po). As for the experimental part: The ability of the compounds to inhibit seizures in mice induced by a maximal electroshock was observed. Hereinafter, this test is referred to as `MESM`.
In the MESM experiments, groups of male mice in the weight range 25 to 30 grammes had free access to food and water until the start of the experiment. The mice were divided into two groups, a control group and a test group to which a compound of formula I or II would be administered. The control group received an oral dose of 10 ml/kg of a vehicle of 1% aqueous methyl cellulose solution. […] One hour after administration of all drugs an electroshock of duration 1.0 second was administered to all the mice in both groups through ear clip electrodes moistened with saline. […] Such a shock would generally be expected to induce a seizure in the mice.
The greater the anticonvulsant activity of the compound of formula I or II, the higher was the percentage recorded in the MESM test.
If results at more than one dose were available, then a value for the dose inhibiting seizures in 50% of the mice (ED50) was calculated from the regression straight line plot of the percentage of mice in which seizures were inhibited against the dose of the compound of formula I or II administered.
For orientation: The maximal electroshock test induces tonic seizures with an electrical stimulus.

Consider `CC(C)(C)c1nccc(-c2nn(-c3ccc(F)cc3)ccc2=O)n1` [Example 1, 3-(2-Tert-butylpyrimidin-4-yl)-1-(4-fluorophenyl)pyridazin-4(1H)-one], for which the ED50 in assay [1] amounted to 4.7 mg/kg. On to `CC(C)c1nccc(-c2nn(-c3ccc(F)cc3)ccc2=O)n1` [Example 2, 3-(2-isopropylpyrimidin-4-yl)-1-(4-fluorophenyl)pyridazin-4(1H)-one], for which the 50% effective dose (ED50) is 4.6 mg/kg in assay [1] and 83.4 mg/kg in assay [2]. In the case of `O=c1ccn(-c2ccc(F)cc2)nc1-c1ccnc(-c2ccccc2)n1` [Example 3, 3-(2-phenylpyrimidin-4-yl)-1-(4-fluorophenyl)pyridazin-4(1H)-one], the “% protection from MES-induced seizure” value in assay [2] was found to be 50%. In the case of `O=c1ccn(-c2ccc(Cl)cc2Cl)nc1-c1ccncn1` [Example 4, 3-(pyrimidin-4-yl)-1-(2,4-dichlorophenyl)pyridazin-4(1H)-one], the values for the ED50 in assay [1] and in assay [2] were 158 mg/kg and 73.6 mg/kg, respectively. Take `CC(C)c1nccc(-c2nn(-c3ccc(Cl)cc3)ccc2=O)n1` [Example 5, 3-(2-isopropylpyrimidin-4-yl)-1-(4-chlorophenyl)pyridazin-4(1H)-one]: it took a dose of 11.8 mg/kg to reach the 50% effect level in assay [1] (ED50). For the same molecule, the “% protection from MES-induced seizure” value in assay [2] was found to be 50%. Consider `O=c1ccn(-c2ccc(Cl)cc2)nc1-c1ccnc(C2CC2)n1` [Example 6, 3-(2-cyclopropylpyrimidin-4-yl)-1-(4-chlorophenyl)pyridazin-4(1H)-one], for which the “% protection from bicuculline-induced seizures” value in assay [1] was determined as 60%.

As for `O=c1ccn(-c2ccc(F)cc2)nc1-c1ccnc(C2CCCCC2)n1` [Example 7, 3-(2-cyclohexylpyrimidin-4-yl)-1-(4-fluorophenyl)pyridazin-4(1H)-one], the “% protection from bicuculline-induced seizures” value in assay [1] was 70%. For the molecule `O=c1ccn(-c2ccc(Cl)cc2)nc1-c1ccnc(C2CCCCC2)n1` [Example 8, 3-(2-cyclohexylpyrimidin-4-yl)-1-(4-chlorophenyl)pyridazin-4(1H)-one], in assay [1], the 50% effect level (ED50) was put at a dose of 12.9 mg/kg. For the molecule `CCCc1nccc(-c2nn(-c3ccc(F)cc3)ccc2=O)n1` [Example 9, 3-(2-propylpyrimidin-4-yl)-1-(4-fluorophenyl)pyridazin-4(1H)-one], the “% protection from MES-induced seizure” value in assay [2] was 50%.
